This passage reports inhibition and IC50 results from patent US8193191B2, “Urotensin II receptor antagonists” (Janssen Pharmaceutica N.V., priority 2006, dated 2012).

The experiment deals with T1, rat GPR14 (U-II receptor) (Rattus norvegicus, UniProt P49684).
T1 construct: expressed in transfected cells
T1 sequence (P49684 1-386): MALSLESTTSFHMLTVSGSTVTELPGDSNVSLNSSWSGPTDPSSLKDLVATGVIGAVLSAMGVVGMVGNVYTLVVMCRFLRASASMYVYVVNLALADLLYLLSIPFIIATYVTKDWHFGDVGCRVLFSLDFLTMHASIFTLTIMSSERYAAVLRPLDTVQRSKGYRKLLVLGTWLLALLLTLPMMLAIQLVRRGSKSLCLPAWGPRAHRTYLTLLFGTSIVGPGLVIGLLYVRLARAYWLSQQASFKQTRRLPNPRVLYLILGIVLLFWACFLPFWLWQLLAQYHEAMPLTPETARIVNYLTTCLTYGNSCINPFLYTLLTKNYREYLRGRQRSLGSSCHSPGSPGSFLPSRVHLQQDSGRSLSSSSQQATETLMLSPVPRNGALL
Nature of the experiment: Rat UII Calcium Mobilization FLIPR Assay. Particulars: for inhibition at 10 µM / inhibition at 50 µM: CHO, 5 min, agonist-induced Ca2+ mobilization (FLIPR), CHO cells with rat UII receptor; for inhibition at 10 µM: 10 μM compound, read-out: % I @ 10; for inhibition at 50 µM: 50 μM compound, read-out: % I @ 50; for IC50: Inhibition of Acetyl-cyclic[Cys-Phe-Trp-Lys-(2-Nal)-Cys]-NH2 induced Ca2+ mobilization (FLIPR) in CHO cells transfected with rat UII receptor, read-out: IC50. The format is cell-based. From the text:
To derive these cells, the complete coding sequence of rat U-II (Genbank Accession No. U32673) was amplified by nested PCR from rat heart marathon-Ready cDNA. […] The PCR products were cloned into pcDNA3 (Invitrogen) digested with EcoR I and Xba I. Clones containing rat U-II receptor were verified by complete sequencing of the U-II receptor insert to ensure a lack of PCR-introduced errors. The constructed vector was transfected into CHO cells by using lipofectamine (GIBCO BRL). CHO cells with high expression of rat U-II receptor were selected and established as stable cell lines by using G418. CHO cells were seeded at 25,000 cells per well into 96-well, black-wall, clear-bottom microtiter plates 24 h before assay. Cells in culture media (DMEM/F12 containing 15 mM HEPES, L-glutamine, pyridoxine hydrochloride; 10% fetal bovine serum; 1 mg/mL G418 sulfate; antibiotic-antimycotic; pH 7.4) were loaded with proprietary dye, from the FLIPR Calcium Assay Kit (Molecular Devices), prepared in assay buffer (Hanks Balanced Salts Solution, 20 mM HEPES, 0.1% BSA, 2.5 mM probenecid, pH 7.4), and incubated for 1 h at 37° C. Calcium mobilization determinations were performed at room temperature (23° C.).

Turning to `COc1ccc(CN2C(=O)c3cccc(N4CCN(Cc5ccc(C)cc5)CC4)c3C2=O)cc1OC` [Cpd 40, 2-(3,4-dimethoxy-benzyl)-4-[4-(4-methyl-benzyl)-piperazin-1-yl]-isoindole-1,3-dione], the inhibition at 10 µM came out at 47%, the inhibition at 50 µM was determined as 87% and the IC50 was 9 µM.

Take `CCCOc1ccc(CN2C(=O)c3cccc(N4CCN([C@H](C)c5ccccc5)CC4)c3C2=O)cc1OC` [Cpd 41, 2-(3-methoxy-4-propoxy-benzyl)-4-[4-(1R)-(1-phenyl-ethyl)-piperazin-1-yl]-isoindole-1,3-dione]: the inhibition at 10 µM came out at 57%, the inhibition at 50 µM worked out at 69% and the IC50 is 9.8 µM.

Consider `COc1ccc(CN2C(=O)c3cccc(N4C[C@@H](C)N(Cc5ccccc5)[C@@H](C)C4)c3C2=O)cc1OC` [Cpd 42, (3R,5S)-4-(4-benzyl-3,5-dimethyl-piperazin-1-yl)-2-(3,4-dimethoxy-benzyl)-isoindole-1,3-dione], for which the inhibition at 10 µM was 55%, the inhibition at 50 µM stood at 78% and the concentration for half-maximal inhibition (IC50) was 10 µM.

`O=C1c2cccc(N3CCN(Cc4ccccc4)CC3)c2C(=O)N1CCc1ccncc1` [Cpd 43, 4-(4-benzyl-piperazin-1-yl)-2-(2-pyridin-4-yl-ethyl)-isoindole-1,3-dione]: the inhibition at 10 µM is 50%, the inhibition at 50 µM came out at 97% and the IC50 was 10 µM.

With `COc1ccc(CN2C(=O)c3cccc(N4CCN(Cc5cccc(Cl)c5)CC4)c3C2=O)cc1OC` [Cpd 44, 4-[4-(3-chloro-benzyl)-piperazin-1-yl]-2-(3,4-dimethoxy-benzyl)-isoindole-1,3-dione], the inhibition at 10 µM was found to be 42%, the inhibition at 50 µM is 79% and the IC50 stood at 12 µM.

For the compound `COc1cc(CN2C(=O)c3cccc(N4CC5CCC(C4)N5Cc4ccccc4)c3C2=O)cc(OC)c1` [Cpd 45, 4-(8-benzyl-3,8-diaza-bicyclo[3.2.1]oct-3-yl)-2-(3,5-dimethoxy-benzyl)-isoindole-1,3-dione], the inhibition at 10 µM came out at 55%, the inhibition at 50 µM was 40% and the IC50 was found to be 13 µM.

Consider `COc1ccc(CN2C(=O)c3cccc(N4CCN(Cc5cc(F)cc(F)c5)CC4)c3C2=O)cc1OC` [Cpd 46, 4-[4-(3,5-difluoro-benzyl)-piperazin-1-yl]-2-(3,4-dimethoxy-benzyl)-isoindole-1,3-dione], for which the inhibition at 10 µM was found to be 48%, the inhibition at 50 µM was determined as 54% and the IC50 worked out at 14 µM.

Take `O=C1c2cccc(N3CCN(Cc4ccccc4)CC3)c2C(=O)N1CCCn1ccnc1` [Cpd 47, 4-(4-benzyl-piperazin-1-yl)-2-(3-imidazol-1-yl-propyl)-isoindole-1,3-dione]: the inhibition at 10 µM came to 25%, the inhibition at 50 µM came out at 78% and the 50% inhibitory concentration (IC50) came out at 15 µM.

Regarding `COc1ccc(CN2C(=O)c3cccc(NCCNCc4ccccc4)c3C2=O)cc1OC` [Cpd 48, 4-(2-benzylamino-ethylamino)-2-(3,4-dimethoxy-benzyl)-isoindole-1,3-dione], the inhibition at 10 µM is 41%, the inhibition at 50 µM was 78% and the IC50 was 16 µM.

As to `COc1ccc(C(c2ccccc2)N2C(=O)c3cccc(N4CCN([C@H](C)c5ccccc5)CC4)c3C2=O)cc1OC` (stereo partly drawn) [Cpd 49, 2-[(3,4-dimethoxy-phenyl)-phenyl-methyl]-4-[4-(1R)-(1-phenyl-ethyl)-piperazin-1-yl]-isoindole-1,3-dione], the inhibition at 10 µM came to 58%, the inhibition at 50 µM was found to be 61% and the half-maximal inhibitory concentration (IC50) was determined as 16 µM.

For the compound `COc1ccc(CN2C(=O)c3cccc(C4=CC5CCC(C4)N5Cc4ccccc4)c3C2=O)cc1OC` (stereo not drawn) [Cpd 50, 4-(8-benzyl-8-aza-bicyclo[3.2.1]oct-2-en-3-yl)-2-(3,4-dimethoxy-benzyl)-isoindole-1,3-dione], the inhibition at 10 µM stood at 42%, the inhibition at 50 µM came out at 77% and the IC50 is 17 µM.

For `COc1ccc(CN2C(=O)c3cccc(N4C[C@@H](C)N(C(C)c5ccccc5)[C@@H](C)C4)c3C2=O)cc1OC` (stereo partly drawn) [Cpd 51, (3R,5S)-2-(3,4-dimethoxy-benzyl)-4-[3,5-dimethyl-4-(1-phenyl-ethyl)-piperazin-1-yl]-isoindole-1,3-dione], the inhibition at 10 µM was found to be 43%, the inhibition at 50 µM was 65% and the IC50 was found to be 18 µM.

Regarding `COc1cc(CN2C(=O)c3cccc(N4CCN(C(C)C)CC4)c3C2=O)cc(OC)c1OC` [Cpd 52, 4-(4-isopropyl-piperazin-1-yl)-2-(3,4,5-trimethoxy-benzyl)-isoindole-1,3-dione], the inhibition at 10 µM was found to be 17%, the inhibition at 50 µM came to 71% and the IC50 was found to be 18 µM.

As for `COc1ccc(CN2C(=O)c3cccc(OCCN(C)Cc4ccccc4)c3C2=O)cc1OC` [Cpd 53, 4-[2-(benzyl-methyl-amino)-ethoxy]-2-(3,4-dimethoxy-benzyl)-isoindole-1,3-dione], the inhibition at 10 µM was determined as 22%, the inhibition at 50 µM was 78% and the IC50 worked out at 21 µM.

With `COc1ccc(CN2C(=O)c3cccc(OCCNCc4ccccc4)c3C2=O)cc1OC` [Cpd 54, 4-(2-benzylamino-ethoxy)-2-(3,4-dimethoxy-benzyl)-isoindole-1,3-dione], the inhibition at 10 µM worked out at 15%, the inhibition at 50 µM worked out at 81% and the IC50 was determined as 21 µM.

For the compound `Cc1c(CN2C(=O)c3cccc(N4CCN(Cc5ccccc5)CC4)c3C2=O)cnn1C` [Cpd 55, 4-(4-benzyl-piperazin-1-yl)-2-(1,5-dimethyl-1H-pyrazol-4-ylmethyl)-isoindole-1,3-dione], the inhibition at 10 µM amounted to 12%, the inhibition at 50 µM was 75% and the IC50 was determined as 24 µM.

As to `COc1ccc(CN2CCN(c3cccc4c3C(=O)N(Cc3ccc(OC)c(OC)c3)C4=O)CC2)cc1OC` [Cpd 56, 2-(3,4-dimethoxy-benzyl)-4-[4-(3,4-dimethoxy-benzyl)-piperazin-1-yl]-isoindole-1,3-dione], the inhibition at 10 µM worked out at 21%, the inhibition at 50 µM came to 68% and the IC50 stood at 25 µM.

For the compound `COc1ccc(CN2C(=O)c3cccc(N4CCN(Cc5ccc(Cl)cc5)CC4)c3C2=O)cc1OC` [Cpd 57, 4-[4-(4-chloro-benzyl)-piperazin-1-yl]-2-(3,4-dimethoxy-benzyl)-isoindole-1,3-dione], the inhibition at 10 µM turned out to be 19%, the inhibition at 50 µM was found to be 58% and the half-inhibitory concentration (IC50) amounted to 30 µM.

Consider `COc1cc(CN2C(=O)c3cccc(N4CCN(Cc5ccccc5)CC4)c3C2=O)ccn1` [Cpd 58, 4-(4-benzyl-piperazin-1-yl)-2-(2-methoxy-pyridin-4-ylmethyl)-isoindole-1,3-dione], for which the inhibition at 10 µM was 25%, the inhibition at 50 µM amounted to 60% and the IC50 amounted to 32 µM.

On to `O=C1c2cccc(N3CC4CCC(C3)N4Cc3ccccc3)c2C(=O)N1Cc1ccccn1` [Cpd 59, 4-(8-benzyl-3,8-diaza-bicyclo[3.2.1]oct-3-yl)-2-pyridin-2-ylmethyl-isoindole-1,3-dione], for which the inhibition at 10 µM was 11%, the inhibition at 50 µM amounted to 56% and the IC50 stood at 34 µM.
